Consider 15 compounds from patent US20230099293A1, “OGA INHIBITOR COMPOUNDS” (priority 2019, published 2023).

The target in one data set is T1, hOGA (Homo sapiens, UniProt O60502).
T1 construct: endogenous in cells; host or cells: HEK293 cells inducible for P301L mutant human Tau (isoform 2N4R)
T1 sequence (O60502 1-916): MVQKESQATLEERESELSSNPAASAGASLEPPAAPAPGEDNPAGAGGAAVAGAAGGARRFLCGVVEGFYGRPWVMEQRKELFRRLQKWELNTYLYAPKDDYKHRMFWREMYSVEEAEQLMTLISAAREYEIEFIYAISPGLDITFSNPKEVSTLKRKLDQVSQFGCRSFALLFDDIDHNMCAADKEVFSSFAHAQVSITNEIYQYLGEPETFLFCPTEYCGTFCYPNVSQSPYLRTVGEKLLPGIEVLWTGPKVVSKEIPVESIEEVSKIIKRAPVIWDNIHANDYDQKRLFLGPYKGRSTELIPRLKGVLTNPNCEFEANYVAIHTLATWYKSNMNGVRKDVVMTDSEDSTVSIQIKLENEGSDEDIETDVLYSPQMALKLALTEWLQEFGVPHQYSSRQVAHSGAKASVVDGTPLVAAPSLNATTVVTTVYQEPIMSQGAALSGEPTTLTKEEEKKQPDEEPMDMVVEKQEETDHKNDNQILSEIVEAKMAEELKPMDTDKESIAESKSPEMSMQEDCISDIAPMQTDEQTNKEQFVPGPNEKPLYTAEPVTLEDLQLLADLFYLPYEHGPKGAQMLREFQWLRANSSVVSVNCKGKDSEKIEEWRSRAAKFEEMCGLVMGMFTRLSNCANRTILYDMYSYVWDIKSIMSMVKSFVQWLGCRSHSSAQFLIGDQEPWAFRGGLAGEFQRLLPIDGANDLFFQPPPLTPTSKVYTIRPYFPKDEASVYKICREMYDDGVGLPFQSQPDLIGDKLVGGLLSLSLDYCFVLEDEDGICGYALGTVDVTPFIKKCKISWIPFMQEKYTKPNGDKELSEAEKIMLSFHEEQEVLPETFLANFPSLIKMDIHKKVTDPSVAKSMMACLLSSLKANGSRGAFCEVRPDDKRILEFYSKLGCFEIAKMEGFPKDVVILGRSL
Briefly: OGA cellular assay (ICC detection of O-GlcNAcylated proteins in HEK293 cells inducible for P301L mutant human Tau). The class given is cell-based. Set-up: Emax: dose or concentration left out as unconfirmed. The following applies: for EC50: Cellular hOGA; for Emax: HEK293, read-out: Cellular Emax (%). As for the experimental part:
HEK293 cells inducible for P301L mutant human Tau (isoform 2N4R) were established at Janssen. Thiamet-G was used for both plate validation (high control) and as reference compound (reference EC50 assay validation). OGA inhibition is evaluated through the immunocytochemical (ICC) detection of O-GlcNAcylated proteins by the use of a monoclonal antibody (CTD110.6; Cell Signaling, #9875) detecting O-GlcNAcylated residues as previously described (Dorfmueller et al. 2010 Chemistry & biology, 17:1250). Inhibition of OGA will result in an increase of O-GlcNAcylated protein levels resulting in an increased signal in the experiment. Cell nuclei are stained with Hoechst to give a cell culture quality control and a rough estimate of immediate compounds toxicity, if any. ICC pictures are imaged with a Perkin Elmer Opera Phenix plate microscope and quantified with the provided software Perkin Elmer Harmony 4.1.
Cells were propagated in DMEM high Glucose (Sigma, #D5796) following standard procedures. 2 days before the cell assay cells are split, counted and seeded in Poly-D-Lysine (PDL) coated 96-wells (Greiner, #655946) plate at a cell density of 12,000 cells per cm^2 (4,000 cells per well) in 100 μl of Assay Medium (Low Glucose medium is used to reduce basal levels of GlcNAcylation) (Park et al. 2014 The Journal of biological chemistry 289:13519). At the day of compound test medium from assay plates was removed and replenished with 90 μl of fresh Assay Medium. 10 μl of compounds at a 10 fold final concentration were added to the wells. Plates were centrifuged shortly before incubation in the cell incubator for 6 hours. DMSO concentration was set to 0.2%. Medium is discarded by applying vacuum. For staining of cells medium was removed and cells washed once with 100 μl D-PBS (Sigma, #D8537). From next step onwards unless other stated assay volume was always 50 μl and incubation was performed without agitation and at room temperature. Cells were fixed in 50 μl of a 4% paraformaldehyde (PFA, Alpha aesar, #043368) PBS solution for 15 minutes at room temperature. […] Before analysis samples were washed 2 times manually for 5 minutes in ICC base buffer.
Imaging is performed using Perkin Elmer Phenix Opera using a water 20× objective and recording 9 fields per well. Intensity readout at 488 nm is used as a measure of O-GlcNAcylation level of total proteins in wells. To assess potential toxicity of compounds nuclei were counted using the Hoechst staining. IC50-values are calculated using parametric non-linear regression model fitting. As a maximum inhibition Thiamet Gat a 200 uM concentration is present on each plate. In addition, a concentration response of Thiamet G is calculated on each plate.

For data set [1], the target named is T2, recombinant human Meningioma Expressed Antigen 5 (MGEA5), also referred to as O-GlcNAcase (OGA) (Homo sapiens, UniProt O60502).
T2 construct: Full length OGA enzyme was purchased at OriGene (cat #TP322411); purchased OriGene TP322411
T2 sequence (O60502 1-916): T1 sequence (O60502 1-916)
The experiment in a line: OGA biochemical assay (inhibition of FM-GlcNAc hydrolysis, fluorescence). The following applies: for IC50: Enzymatic hOGA; for Emax: read-out: Enzymatic Emax (%); for Enzymatic hOGA; pIC50: Table 5. As for the experimental part:
The hydrolysis FM-GlcNAc (Marker Gene technologies, cat #M1485) results in the formation of β-D-N-glucosamineacetate and fluorescein. The fluorescence of the latter can be measured at excitation wavelength 485 nm and emission wavelength 538 nm. An increase in enzyme activity results in an increase in fluorescence signal. Full length OGA enzyme was purchased at OriGene (cat #TP322411). The enzyme was stored in 25 mM Tris.HCl, pH 7.3, 100 mM glycine, 10% glycerol at −20° C. […] The assay was performed in 200 mM Citrate/phosphate buffer supplemented with 0.005% Tween-20. 35.6 g Na2HIPO42H2O (Sigma, #C0759) were dissolved in 1 L water to obtain a 200 mM solution. […] The buffer to stop the reaction consists of a 500 mM Carbonate buffer, pH 11.0. […] OGA was used at a 2 nM concentration and FM-GlcNAc at a 100 uM final concentration. Dilutions were prepared in assay buffer.
Plates were pre-incubated for 60 min at room temperature and then 2 μl FM-GlcNAc substrate mix added. […] Plates were briefly centrifuged for 1 min at 1000 rpm and incubate at room temperature for 6 h. To stop the reaction 5 μl STOP buffer were added and plates centrifuge again 1 min at 1000 rpm. Fluorescence was quantified in the Thermo Scientific Fluoroskan Ascent or the PerkinElmer EnVision with excitation wavelength 485 nm and emission wavelength 538 nm.
For analysis a best-fit curve is fitted by a minimum sum of squares method. From this an IC50 value and Hill coefficient was obtained. High control (no inhibitor) and low control (saturating concentrations of standard inhibitor) were used to define the minimum and maximum values.

[2] abbreviates: pEC50, Table 5, HEK293 P301L Tau cells, 6 hours incubation, O-GlcNAcylation readout.
Setting [3] is: pIC50, Table 5, full length OGA 2 nM, FM-GlcNAc 100 uM, 6 h at room temperature.
Setting [4] is: pEC50, second table, averaged values over several runs, obtained after recalibration of the equipment.
Setting [5] is: pIC50, second table, averaged values over several runs, obtained after recalibration of the equipment.
The mark [6] stands for this setting: Table 5, HEK293 P301L Tau cells, 6 hours incubation, O-GlcNAcylation readout.
[7] abbreviates: second table, averaged values over several runs, obtained after recalibration of the equipment.
The mark [8] stands for this setting: full length OGA 2 nM, FM-GlcNAc 100 uM, 6 h at room temperature.

Broadly, the melting point is the temperature, or range, at which the solid turns liquid. For orientation: EC50 means the concentration at which the effect is half-maximal. What is called Emax is the maximal effect, on the per cent scale that the assay sets. The term IC50 denotes the concentration at which inhibition is half-maximal. `Cc1cc(C(F)(F)F)cc(C)c1Nc1nccc2c1ncn2CC(N)=O` [Compound 5, 2-[4-[2,6-Dimethyl-4-(trifluoromethyl)anilino]imidazo[4,5-c]pyridin-1-yl]acetamide]: the melting point was determined as 266.8 °C. Besides, the EC50 at hOGA (setting [2]) is 447 nM. The Emax at hOGA was 67%. In data set [1] (setting [3]), the IC50 is 120 nM. Further, in data set [1], the Emax came to 91%.
Taken in the same sequence, the figures for `Cc1cc(C(F)(F)F)cc(C(C)C)c1Nc1nccc2c1ncn2CC(=O)N(C)C` [Compound 12] were 234.4 °C, 46.8 nM, 88%, 10.7 nM and 101%.
Taken in the same sequence, the figures for `Cc1cc(C(F)(F)F)cc(Cl)c1Nc1nccc2c1ncn2CC(=O)N(C)C` [Compound 15] were 214.14 °C, 204 nM, 64%, 14.1 nM and 98%.
Taken in the same sequence, the figures for `COc1ccc(-n2nc(C)c(Nc3nccc4c3ncn4CC(=O)N(C)C)c2C)cc1` [Compound 44] were 199.9 °C, 457 nM, 64%, 27.5 nM and 99%.
`CN(C)C(=O)Cn1cnc2c(Nc3c(Cl)cc(C(F)(F)F)cc3Cl)nccc21` [Compound 17] displayed a melting point of 238.4 °C. The compound also showed a half-maximal effective concentration (EC50) on hOGA (setting [2]) of 316 nM. Further, the Emax at hOGA is 77%. For the same compound, the IC50 in data set [1] (setting [3]) was 16.2 nM. Moreover, the Emax in data set [1] was found to be 99%.
For the compound `Cc1cc(C(F)(F)F)cc(C)c1Nc1nccc2c1ncn2-c1cn(C)cn1` [Compound 82, N-(2,6-dimethyl-4-(trifluoromethyl)phenyl)-1-(1-methyl-1H-imidazol-4-yl)-1H-imidazo[4,5-c]pyridin-4-amine], the melting point came out at 184.8 °C. Moreover, on hOGA (setting [4]), the EC50 is > 1000 nM. Further, in data set [1] (setting [3]), the IC50 was 174 nM. The IC50 in data set [1] (setting [5]) was 170 nM. In addition, the Emax in data set [1] came to 97%.
The compound `COc1cc(C)c(Nc2nccc3c2ncn3CC(=O)N(C)C)c(C)c1` [Compound 8] displayed a melting point of 230 °C. At hOGA (setting [2]), the EC50 was 26.9 nM. In addition, the Emax at hOGA was 98%. For the same compound, the IC50 in data set [1] (setting [3]) was 5.5 nM. In data set [1], the Emax is 97%.
Taken in the same sequence, the figures for `Cc1cc(C#N)cc(C)c1Nc1nccc2c1ncn2CC(=O)N(C)C` [Compound 46] were 263.4 °C, 468 nM, 69%, 13.5 nM and 92%.
In the case of `CNC(=O)Cn1cnc2c(Nc3c(C)cc(C(F)(F)F)cc3C)nccc21` [Compound 4, 2-(4-((2,6-Dimethyl-4-(trifluoromethyl)phenyl)amino)-1H-imidazo[4,5-c]pyridin-1-yl)-N-methylacetamide], the melting point was found to be 275.1 °C. The compound also showed an EC50 on hOGA (setting [2]) of 55 nM. Also, the Emax at hOGA worked out at 101%. Moreover, the concentration for half-maximal inhibition (IC50) in data set [1] (setting [3]) was 3.39 nM. Besides, in data set [1], the Emax is 98%.
With `Cc1cc(F)c(F)c(C)c1Nc1nccc2c1ncn2CC(=O)N(C)C` [Compound 78], the melting point is 198.1 °C. On hOGA (setting [4]), this compound had an EC50 of 427 nM. Further, in data set [1] (setting [5]), the 50% inhibitory concentration (IC50) is 21.4 nM.
For `COCCn1cnc2c(Nc3c(C)cc(C(F)(F)F)cc3C)nccc21` [Compound 74], the melting point came to 161.5 °C. Besides, the Emax on hOGA turned out to be 6%. Besides, at hOGA (setting [6]), the “Cellular hOGA; pEC50” value is <6. Moreover, the “Cellular hOGA; pEC50” value on hOGA (setting [7]) is <6. Moreover, the “Enzymatic hOGA; pIC50” value in data set [1] (setting [8]) was found to be 5.64. The Emax in data set [1] was 83%.
`Cc1cc(C(F)(F)F)cc(C)c1Nc1nccc2c1ncn2C(C)(C)C(=O)N(C)C` [Compound 71] returned a melting point of 260.1 °C. The Emax on hOGA is 27%. Moreover, the “Cellular hOGA; pEC50” value at hOGA (setting [6]) is given as <6. The “Cellular hOGA; pEC50” value at hOGA (setting [7]) is <6. The “Enzymatic hOGA; pIC50” value in data set [1] (setting [8]) is given as <5. Moreover, in data set [1], the Emax was 6%.
As for `Cc1c(C(F)(F)F)nn(C)c1Nc1nccc2c1ncn2CC(=O)N(C)C` [Compound 39], the melting point is 240 °C. Moreover, the concentration giving a half-maximal response (EC50) at hOGA (setting [2]) is > 1000 nM. On hOGA, the Emax was 12%. The half-maximal inhibitory concentration (IC50) in data set [1] (setting [3]) is 631 nM. Also, in data set [1], the Emax stood at 94%.
Taken in the same sequence, the figures for `Cc1cc(C(F)(F)F)cc(C)c1Nc1ncc(Cl)c2c1ncn2CC(=O)N(C)C` [Compound 62, 2-[7-Chloro-4-[2,6-dimethyl-4-(trifluoromethyl)anilino]imidazo[4,5-c]pyridin-1-yl]-N,N-dimethyl-acetamide] were 239.9 °C, > 1000 nM, 13%, 692 nM and 91%.
Taken in the same sequence, the figures for `Cc1ccnc(C(C)C)c1Nc1nccc2c1ncn2CC(=O)N(C)C` [Compound 14] were 223.3 °C, 427 nM, 75%, 14.1 nM and 100%.
